# Results taken from ChEMBL document CHEMBL1201862, “PubChem BioAssay data set” (2004).
# Active and inactive are the calls of the source.
# What was measured:
# [1] = Luminescence Cell-Based Dose Response HTS to Identify Inhibitors of 5'UTR Stem-Loop Driven Prion Protein mRNA Translation in H4 Neuroglioblastoma Cells. [Related pubchem assays: 1827 (Project Summary), 1813 (Primary HTS)]; assay type: functional
# [2] = luciferase reporter signal suppression in cells – H4 neuroglioma cells, luminescence, dose response (AID 1990); assay type: functional, cell-based
# [3] = alpha-synuclein stem-loop luciferase translation blockers – H4 neuroglioma cells, luminescence, confirmation (AID 1988); assay type: functional, cell-based
# BJ [4] = test: BJ-TERT fibroblast viability loss – cell-based, RAS-independent, luminescence, dose response (AID 1933); assay type: functional; conditions: Homo sapiens
# BJ [5] = test: cells; assay type: functional, cell-based; conditions: Homo sapiens
# BJ [6] = test: BJ-TERT-LT-ST fibroblast viability loss – cell-based, RAS-independent, luminescence, dose response (AID 1935); assay type: functional; conditions: Homo sapiens;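 further: BJ fibroblasts immortalized with TERT plus LT and ST oncogenes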
# [7] = DRD fibroblast viability loss – cell-based, non-viral oncogenic, luminescence, dose response (AID 1934); assay type: functional; conditions: Homo sapiens
# [8] = target: T1, Carboxy-terminal domain RNA polymerase II polypeptide A small phosphatase 1 (Homo sapiens, UniProt Q9GZU7); test: CTDSP1 inhibitors, concentration-response, biochemical, absorbance readout, ultra-high-throughput screen actives (AID 540297); assay type: functional
# T1 sequence (Q9GZU7 whole entry): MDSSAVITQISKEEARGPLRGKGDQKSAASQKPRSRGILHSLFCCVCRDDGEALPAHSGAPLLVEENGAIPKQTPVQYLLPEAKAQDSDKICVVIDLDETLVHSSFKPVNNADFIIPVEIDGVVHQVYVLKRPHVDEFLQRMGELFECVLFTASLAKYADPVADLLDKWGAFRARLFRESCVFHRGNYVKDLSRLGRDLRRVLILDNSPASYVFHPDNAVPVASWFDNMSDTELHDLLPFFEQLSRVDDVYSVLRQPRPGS
# [9] = target: T2, Heat shock factor protein 1 (Mus musculus, UniProt P38532); test: decrease of HSF1-responsive luciferase luminescence – cell-based, NIH3T3, dose retest, confirmation (AID 2382); assay type: functional;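 further: NIH3T3 fibroblasts with HSF1-driven luciferase reporter stressed by proteasome inhibitor MG132; luminescence from HSF1-driven luciferase expression after 8 hours of MG132 stress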
# T2 sequence (P38532 whole entry): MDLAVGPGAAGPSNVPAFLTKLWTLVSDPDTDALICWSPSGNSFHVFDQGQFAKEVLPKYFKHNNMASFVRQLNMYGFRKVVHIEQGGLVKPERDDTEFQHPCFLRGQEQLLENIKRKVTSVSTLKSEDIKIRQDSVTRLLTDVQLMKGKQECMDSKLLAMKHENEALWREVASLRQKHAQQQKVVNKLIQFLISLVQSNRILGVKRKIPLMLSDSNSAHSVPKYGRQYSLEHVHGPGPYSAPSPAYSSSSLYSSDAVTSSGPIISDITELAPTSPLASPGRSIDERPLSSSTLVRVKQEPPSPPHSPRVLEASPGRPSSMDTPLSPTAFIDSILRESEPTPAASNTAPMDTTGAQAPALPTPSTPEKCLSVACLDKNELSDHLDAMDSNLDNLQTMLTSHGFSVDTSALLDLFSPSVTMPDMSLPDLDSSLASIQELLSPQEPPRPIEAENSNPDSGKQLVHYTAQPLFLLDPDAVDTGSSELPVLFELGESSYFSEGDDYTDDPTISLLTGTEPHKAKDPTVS
# [10] = target: T3, Polyadenylate-binding protein 1 (Homo sapiens, UniProt P11940); test: MLLE binding blockers, Cy5 peptide tracer – biochemical, fluorescence polarization, Cy5-PAM2 peptide, secondary, miRNA deadenylation inhibitor project, dose response (AID 602260); assay type: functional; conditions: read-out: IC50_Mean
# T3 sequence (P11940 whole entry, the tested form may be a part): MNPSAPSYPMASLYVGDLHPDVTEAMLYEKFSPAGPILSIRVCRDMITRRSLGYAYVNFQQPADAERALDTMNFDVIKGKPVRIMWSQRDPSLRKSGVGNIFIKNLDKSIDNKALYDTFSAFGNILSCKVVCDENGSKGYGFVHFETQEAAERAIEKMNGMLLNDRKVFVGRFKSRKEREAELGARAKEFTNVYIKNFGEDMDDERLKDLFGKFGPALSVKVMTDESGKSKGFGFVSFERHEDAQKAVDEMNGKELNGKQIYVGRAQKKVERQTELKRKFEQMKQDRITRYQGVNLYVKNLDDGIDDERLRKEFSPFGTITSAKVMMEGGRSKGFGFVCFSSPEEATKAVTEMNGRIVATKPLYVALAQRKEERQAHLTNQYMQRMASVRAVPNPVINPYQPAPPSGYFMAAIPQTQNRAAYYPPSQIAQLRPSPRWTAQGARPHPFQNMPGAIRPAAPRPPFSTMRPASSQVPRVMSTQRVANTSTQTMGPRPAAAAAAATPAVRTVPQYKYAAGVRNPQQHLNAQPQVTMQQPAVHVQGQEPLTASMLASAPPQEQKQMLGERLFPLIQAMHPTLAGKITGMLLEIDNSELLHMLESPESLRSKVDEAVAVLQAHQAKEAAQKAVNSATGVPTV
# [11] = target: T3, Polyadenylate-binding protein 1; test: MLLE domain peptide-binding blockers, IC50 – biochemical, fluorescence polarization, FITC-PAM2 peptide, dose response (AID 602259); assay type: functional; conditions: read-out: IC50_Mean
# Cytochrome P450 2C19 = Cytochrome P450 2C19 (Homo sapiens, UniProt P33261); test: Cytochrome panel assay with activity outcomes. Panel member name: p450-cyp2c19 Compounds with AC50 equal or less than 10 uM are considered active; assay type: functional; conditions: read-out: AC50
# Sequence of Cytochrome P450 2C19 (P33261 whole entry): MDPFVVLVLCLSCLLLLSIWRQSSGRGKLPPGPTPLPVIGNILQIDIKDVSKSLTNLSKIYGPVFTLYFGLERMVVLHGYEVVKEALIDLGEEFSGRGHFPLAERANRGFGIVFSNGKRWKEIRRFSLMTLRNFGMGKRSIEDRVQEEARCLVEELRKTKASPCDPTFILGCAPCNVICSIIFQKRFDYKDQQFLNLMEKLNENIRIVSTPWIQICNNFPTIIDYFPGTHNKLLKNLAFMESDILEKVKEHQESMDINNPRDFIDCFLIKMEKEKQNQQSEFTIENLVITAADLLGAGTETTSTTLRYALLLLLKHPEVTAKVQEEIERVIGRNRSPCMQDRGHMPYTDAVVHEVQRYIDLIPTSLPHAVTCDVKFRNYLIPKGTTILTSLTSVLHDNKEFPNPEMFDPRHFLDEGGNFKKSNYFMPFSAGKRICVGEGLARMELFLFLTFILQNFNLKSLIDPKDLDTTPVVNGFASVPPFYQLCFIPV
# [12] = Luminescence Cell-Based Dose Confirmation HTS to Identify Activators of 5'UTR Stem-Loop Driven Alpha-Synuclein mRNA Translation in H4 Neuroglioblastoma Cells. [Related pubchem assays: 1829 (Project Summary), 1814 (Primary HTS)]; assay type: functional
# [13] = Luminescence Cell-Based Dose Response HTS to Identify Activators of Luciferase Translation or Activity in H4 […] Cells. [Related pubchem assays: 1829 (Project Summary), 1814 (Primary HTS)]; assay type: functional
# H4 = test: Luminescence Cell-Based Dose Response HTS to Identify Activators of 5'UTR Stem-Loop Driven Prion Protein mRNA Translation in H4 Neuroglioblastoma Cells. [Related pubchem assays: 1829 (Project Summary), 1814 (Primary HTS)]; assay type: functional; conditions: Homo sapiens
structure (smiles),measurement,setting,value
CC(NC(=O)CCc1nnc(-c2ccc(-c3ccccc3)cc2)o1)c1nccs1 (stereo unspecified),EC50,[1],10 µM (active)
CC(C)n1c(SCC(=O)N2c3ccccc3Sc3ccccc32)nc2c1c(=O)n(C)c(=O)n2C,EC50,[2],13.3 µM (active)
same,EC50,[1],13.6 µM (active)
same,EC50,[3],22.2 µM (active)
CCOc1ccc(C(=O)c2cc([N+](=O)[O-])ccc2Cl)cc1,EC50,BJ [4],> 150 µM (not active)
same,EC50,BJ [5],> 150 µM (not active)
same,EC50,BJ [6],> 150 µM (not active)
same,EC50,[7],> 150 µM (not active)
O=C(CCS(=O)(=O)c1ccc(Br)cc1)NCCC1=CCCCC1,IC50,[8],9.5 µM (active)
O=C(CCl)Nc1ccccc1C(=O)c1ccccc1,EC50,BJ [4],> 150 µM (not active)
same,EC50,[9],> 195 µM (not active)
same,EC50,BJ [5],> 150 µM (not active)
same,EC50,BJ [6],> 150 µM (inconclusive)
same,EC50,[7],35.3 µM (active)
NNC(=O)c1nn(-c2ccccc2)cc1O,EC50,[2],> 120 µM (not active)
same,EC50,[1],> 120 µM (not active)
same,EC50,[3],> 120 µM (not active)
Cc1cc(=O)oc2cc(NC(=O)c3cc(F)ccc3F)ccc12,IC50,[8],6.83 µM (active)
Cc1cc2ncc(S(C)(=O)=O)c(N)n2n1,EC50,[2],> 120 µM (not active)
same,EC50,[1],> 120 µM (not active)
same,EC50,[3],> 120 µM (not active)
COc1ccccc1CNC(=O)COc1cc2c(c3oc(=O)cc(C)c13)CCC(C)(C)O2,EC50,[2],16 µM (active)
same,EC50,[1],> 120 µM (not active)
same,EC50,[3],> 120 µM (not active)
COc1ccc(OC)c(S(=O)(=O)N2CCN(C(=O)c3cc(C4CC4)nn3-c3ccccc3)CC2)c1,IC50,[10],> 66 µM (inactive)
same,IC50,[11],> 66 µM (inactive)
COC(=O)C1=C(Nc2ccc(C)cc2)C=C(C)C(C(=O)OC)C1c1ccc(OC)cc1 (stereo unspecified),EC50,[2],> 120 µM (not active)
same,EC50,[1],15.5 µM (active)
same,EC50,[3],11 µM (active)
CCOc1cc(C2C3=C(O)CCCC3=NC3=C2C(=O)CCC3)ccc1OCCO (stereo unspecified),IC50,[10],> 66 µM (inactive)
same,IC50,[11],> 66 µM (inactive)
C[n+]1cn(CC(O)COCc2ccccc2)c2ccccc21 (stereo unspecified),AC50,Cytochrome P450 2C19,15.8 µM (inconclusive)
same,IC50,[8],10.8 µM (active)
O=C(CSc1ncn(-c2ccccc2)n1)c1cccs1,EC50,[12],0.255 µM (active)
same,EC50,[13],25.5 µM (active)
same,EC50,H4,> 120 µM (not active)
same,IC50,[10],> 66 µM (inactive)
same,IC50,[11],> 66 µM (inactive)
COc1ccc(CC(=O)NCc2ccc(-n3cccc3)cc2)cc1OC,EC50,[2],> 120 µM (not active)
same,EC50,[1],9.97 µM (active)
same,EC50,[3],6.37 µM (active)
